# US9149475B2, “Protein kinase C inhibitors and uses thereof” (Rigel Pharmaceuticals, Inc., priority 2009, dated 2015)
# Test system: Human primary T cells
# Test: IL-2 ELISA, human primary T cell, anti-CD3+CD28+ (whole cell assay)
# Type: cell-based
# Conditions: Homo sapiens, T-cell, 24 h, human primary T cells stimulated with anti-CD3 + anti-CD28, 24 hours
# Procedure: (§1) Human primary T cells were prepared as follows. Whole blood was obtained from a healthy volunteer, mixed 1:1 with PBS, layered on to Ficoll Hypaque (Amersham Pharmacia Biotech, Piscataway, N.J., Catalog #17-1440-03) in 2:1 blood/PBS:ficoll ratio and centrifuged for 30 minutes at 4° C. at 1750 rpm. The cells at the serum:ficoll interface were recovered and washed twice with 5 volumes of PBS. These freshly isolated human peripheral blood mononuclear cells were cultured in Yssel's medium containing 40 U/mL IL2 in a flask pre-coated with 1 μg/mL αCD3 and 5 μg/mL αCD28 (Anti-Human CD3, BD Pharmingen Catalog #555336, Anti-Human CD28, Beckman Coulter Catalog #IM1376). The cells were stimulated for 3-4 days, then transferred to a fresh flask and maintained in RPMI (RPMI-1640 with L-Glutamine; Mediatech, Inc., Herndon Va., cat. #10-040-CM) with 10% FBS and 40 U/mL IL-2. The primary T-cells were then washed twice with PBS to remove the IL-2.
# Human primary T cells (100,000 cells per well) were pre-incubated with or without test compound in Yssel's medium for 1 hr at 37° C. Cells were then stimulated by transferring them to round-bottom 96-well plates pre-coated with 1 μg/ml μCD3 and 5 μg/ml μCD28. For counter assay, cells were instead stimulated by adding 8× stock solutions of PMA and ionomycin in Yssels (for final concentrations of 0.5 ng/ml PMA and 0.1 μM ionomycin, both from Calbiochem). Cells were incubated at 37° C. for 24 hours before 100 μL supernatants were harvested for quantification of IL-2 by ELISA using Human IL-2 Duoset ELISA Kit from R and D Systems, Cat. #DY202E.
# as §1, with “Human primary T cell isolation and culture: Human primary” for “Human primary”, “for 30 min at 4°” for “for 30 minutes at 4°”, “at the serum: ficoll interface were” for “at the serum:ficoll interface were”
# Primary T cell stimulation and IL2 ELISA: Human primary T cells (100,000 cells per well) were pre-incubated with or without test compound in Yssel's medium for 1 hr at 37° C. Cells were then stimulated by transferring them to round-bottom 96-well plates pre-coated with 1 μg/ml αCD3 and 5 μg/ml αCD28. For counter assay, cells were instead stimulated by adding 8× stock solutions of PMA and ionomycin in Yssels (for final concentrations of 0.5 ng/ml PMA and 0.1 μM ionomycin, both from Calbiochem). Cells were incubated at 37° C. for 24 hours before 100 μL supernatants were harvested for quantification of IL-2 by ELISA using Human IL-2 Duoset ELISA Kit from R and D Systems, Cat. #DY202E.
row,IC50 [nM],Structure (SMILES)
1,> 1000,"CC1(C)CC(Nc2nc(Nc3ccc(OCCn4cncn4)c(OC(F)F)c3)ncc2F)CC(C)(C)N1 [Compound I-25, N2-(4-(2-(1H-1,2,4-triazol-1-yl)ethoxy)-3-(difluoromethoxy)phenyl)-5-fluoro-N4-(2,2,6,6-tetramethylpiperidin-4-yl)pyrimidine-2,4-diamine]"
2,250 to 500,"CN1C(C)(C)CC(Nc2nc(Nc3ccc(OCCn4ccnn4)c(OC(F)F)c3)ncc2F)CC1(C)C [Compound I-26, N2-(4-(2-(1H-1,2,3-triazol-1-yl)ethoxy)-3-(difluoromethoxy)phenyl)-5-fluoro-N4-(1,2,2,6,6-pentamethylpiperidin-4-yl)pyrimidine-2,4-diamine]"
3,< 250,"CN1C(C)(C)CC(Nc2nc(Nc3ccc(OCCn4cncn4)c(OC(F)F)c3)ncc2F)CC1(C)C [Compound I-27, N2-(4-(2-(1H-1,2,4-triazol-1-yl)ethoxy)-3-(difluoromethoxy)phenyl)-5-fluoro-N4-(1,2,2,6,6-pentamethylpiperidin-4-yl)pyrimidine-2,4-diamine]"
4,500 to 1000,"CC1(C)CC(Nc2nc(Nc3cc(OCCn4cncn4)cc(C(F)(F)F)c3)ncc2F)CC(C)(C)N1 [Compound I-28, N2-(3-(2-(1H-1,2,4-triazol-1-yl)ethoxy)-5-(trifluoromethyl)phenyl)-5-fluoro-N4-(2,2,6,6-tetramethylpiperidin-4-yl)pyrimidine-2,4-diamine]"
5,500 to 1000,"CN1C(C)(C)CC(Nc2nc(Nc3cc(OCCn4cncn4)cc(C(F)(F)F)c3)ncc2F)CC1(C)C [Compound I-29, N2-(3-(2-(1H-1,2,4-triazol-1-yl)ethoxy)-5-(trifluoromethyl)phenyl)-5-fluoro-N4-(1,2,2,6,6-pentamethylpiperidin-4-yl)pyrimidine-2,4-diamine]"
6,500 to 1000,"CC1(C)CC(Nc2nc(Nc3ccc(OCCN4CCCC4=O)c(OC(F)F)c3)ncc2F)CC(C)(C)N1 [Compound I-30, 1-(2-(4-(4-(2,2,6,6-tetramethylpiperidin-4-ylamino)-5-fluoropyrimidin-2-ylamino)-2-(difluoromethoxy)phenoxy)ethyl)pyrrolidin-2-one]"
7,< 250,"CN1C(C)(C)CC(Nc2nc(Nc3ccc(OCCN4CCCC4=O)c(OC(F)F)c3)ncc2F)CC1(C)C [Compound I-31, 1-(2-(4-(4-(1,2,2,6,6-pentamethylpiperidin-4-ylamino)-5-fluoropyrimidin-2-ylamino)-2-(difluoromethoxy)phenoxy)ethyl)pyrrolidin-2-one]"
8,500 to 1000,"CC1(C)CC(Nc2nc(Nc3cc(OCCn4ccnn4)cc(C(F)(F)F)c3)ncc2F)CC(C)(C)N1 [Compound I-32, N2-(3-(2-(1H-1,2,3-triazol-1-yl)ethoxy)-5-(trifluoromethyl)phenyl)-5-fluoro-N4-(2,2,6,6-tetramethylpiperidin-4-yl)pyrimidine-2,4-diamine]"
9,250 to 500,"CN1C(C)(C)CC(Nc2nc(Nc3cc(OCCn4ccnn4)cc(C(F)(F)F)c3)ncc2F)CC1(C)C [Compound I-33, N2-(3-(2-(1H-1,2,3-triazol-1-yl)ethoxy)-5-(trifluoromethyl)phenyl)-5-fluoro-N4-(1,2,2,6,6-pentamethylpiperidin-4-yl)pyrimidine-2,4-diamine]"
10,500 to 1000,"CC1(C)CC(Nc2nc(Nc3ccc(OCCn4ccnn4)c(OC(F)F)c3)ncc2C#N)CC(C)(C)N1 [Compound I-34, 4-(2,2,6,6-tetramethylpiperidin-4-ylamino)-2-(4-(2-(1H-1,2,3-triazol-1-yl)ethoxy)-3-(difluoromethoxy)phenylamino)pyrimidine-5-carbonitrile]"
11,500 to 1000,"CC1(C)CC(Nc2nc(Nc3cc(F)cc(OCCCn4cccc4)c3)ncc2F)CC(C)(C)N1 [Compound I-35, N2-(3-(3-(1H-pyrrol-1-yl)propoxy)-5-fluorophenyl)-5-fluoro-N4-(2,2,6,6-tetramethylpiperidin-4-yl)pyrimidine-2,4-diamine]"
